Measurements from ChEMBL document CHEMBL1201862, “PubChem BioAssay data set” (2004).
Blank lines part the entries; values can stand above or below the compound they belong to. Active and inactive are the calls of the source.

Assays:
Caspase-3 [1] = biological target: T1, Caspase-3 (Homo sapiens, UniProt P42574); type: functional;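 further: Dose-response selectivity test against caspase-3 for candidate inhibitors of sentrin-specific proteases (SENPs)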
T1 sequence (P42574 whole entry): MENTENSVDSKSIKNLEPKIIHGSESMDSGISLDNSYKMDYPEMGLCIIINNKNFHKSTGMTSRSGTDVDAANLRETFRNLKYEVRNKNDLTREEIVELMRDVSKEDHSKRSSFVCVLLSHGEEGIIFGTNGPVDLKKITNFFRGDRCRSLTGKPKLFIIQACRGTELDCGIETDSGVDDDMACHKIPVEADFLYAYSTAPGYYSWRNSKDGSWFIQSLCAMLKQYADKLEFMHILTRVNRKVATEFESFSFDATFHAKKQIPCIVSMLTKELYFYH

Caspase-3 [2] = biological target: T1, Caspase-3; assay: human caspase-3 protease activity blockade – biochemical, fluorescence, cherry-picked samples, selectivity assay for caspase-6 allosteric inhibitor project, dose response (AID 743291)
Genome polyprotein = Genome polyprotein (dengue virus type 2, UniProt P29990); assay: flavivirus cap methylation enzyme inhibition – biochemical, confirmation dose response, primary screen (AID 588689); type: functional
INS1 = assay: INS-1E survival protection against cytokine death – cell-based, luminescence, retest, dose response (AID 449756); type: functional; settings: Rattus norvegicus;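 further: cell death triggered by IL-1 beta plus TNF-alpha plus IFN-gamma mixture; protective hits raise ATP signal compared with cytokine alone wells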
[3] = NIH-3T3 fibroblast cytotoxicity, dose response, cytotoxicity control, cell-based, fluorescence, Alamar Blue, secondary assay (AID 2327); type: functional;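 further: NIH-3T3 mouse fibroblasts cultured with fluconazole at 8 µg/mL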
[4] = non-specific 3'UTR reporter inhibition in Clone20-Shn3RL – cell-based, Renilla luciferase, cherry-picked, counter-screen for Shn3 inhibitor project, dose response (AID 624133); type: functional
HEK293 = assay: membrane integrity loss in HEK cells – cell-based, fluorescence, cytotoxicity control for IDE activator project, dose response (AID 588440); type: functional; settings: Homo sapiens;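 further: cytotoxicity by LDH release measuring loss of membrane integrity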
[5] = biological target: T2, Mitochondrial peptide methionine sulfoxide reductase (Bos taurus, UniProt P54149); type: functional;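 further: absorbance read-out, biochemical high-throughput dose-response screen for MsrA inhibitors, confirmatory; recombinant bovine MsrA coupled to E. coli TrxB with NADPH and selenocystamine; potency is for inhibitors of MsrA activity on DMSO substrate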
T2 sequence (P54149 whole entry): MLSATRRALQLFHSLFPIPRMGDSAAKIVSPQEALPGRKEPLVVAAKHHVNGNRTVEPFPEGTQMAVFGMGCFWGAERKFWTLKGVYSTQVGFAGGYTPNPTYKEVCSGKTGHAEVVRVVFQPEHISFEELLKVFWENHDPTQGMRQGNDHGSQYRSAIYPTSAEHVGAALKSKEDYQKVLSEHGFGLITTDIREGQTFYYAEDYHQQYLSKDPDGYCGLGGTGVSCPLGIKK

[6] = biological target: Heat shock protein HSP 90-alpha (Homo sapiens, UniProt P07900); assay: Luminescence-based dose response biochemical high throughput screening assay for inhibitors of the Heat Shock Protein 90 (HSP90). [Related pubchem assays: 1831 (Summary AID.), 1846 (Confirmation screen.), 1789 (Primary screen.)]
[7] = biological target: Serine/threonine-protein kinase Nek4 (Homo sapiens, UniProt P51957); type: functional
[8] = biological target: Tyrosine-protein kinase Lck (Homo sapiens, UniProt P06239); type: functional;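 further: lck was assayed as one member of a kinase panel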
[9] = biological target: Protein-tyrosine kinase 6 (Homo sapiens, UniProt Q13882); type: functional
[10] = biological target: Serine/threonine-protein kinase D3 (Homo sapiens, UniProt O94806); type: functional;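 further: determined within a kinase panel screen, with PRKCN as the panel member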
[11] = biological target: Homeodomain-interacting protein kinase 4 (Homo sapiens, UniProt Q8NE63); type: functional
[12] = biological target: Receptor tyrosine-protein kinase erbB-4 (Homo sapiens, UniProt Q15303); type: functional;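 further: ERBB4 member of a kinome-wide kinase profiling panel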
Ephrin type-A receptor 2 = Ephrin type-A receptor 2 (Homo sapiens, UniProt P29317); type: functional;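 further: EPHA2 tested as one member of a kinome-wide kinase panel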
[13] = biological target: Protein kinase C zeta type (Homo sapiens, UniProt Q05513); type: functional;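 further: measured as one member of a broad kinase profiling panel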
[14] = biological target: Mitogen-activated protein kinase 1 (Homo sapiens, UniProt P28482); type: functional
[15] = biological target: Cyclin-dependent kinase 1 (Homo sapiens, UniProt P06493); type: functional;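 further: Kinome-wide panel profiling, with the target listed as panel member CDC2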
[16] = biological target: Vascular endothelial growth factor receptor 2 (Homo sapiens, UniProt P35968); type: functional
[17] = biological target: Phosphorylase b kinase gamma catalytic chain, liver/testis isoform (Homo sapiens, UniProt P15735); type: functional;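 further: PHKG2 measured as one member of a kinome-wide kinase panel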
Aurora kinase B = Aurora kinase B (Homo sapiens, UniProt Q96GD4); type: functional
[18] = biological target: Serine/threonine-protein kinase D2 (Homo sapiens, UniProt Q9BZL6); type: functional;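 further: measured against PRKD2 as one member of a kinome-wide kinase profiling panel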
[19] = biological target: Insulin-like growth factor 1 receptor (Homo sapiens, UniProt P08069); assay: Navigating the Kinome. Panel member name: IGF1R; type: functional
[20] = biological target: Ribosomal protein S6 kinase alpha-3 (Homo sapiens, UniProt P51812); type: functional;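 further: measured within a kinome-wide profiling panel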
[21] = biological target: Eukaryotic elongation factor 2 kinase (Homo sapiens, UniProt O00418); type: functional
[22] = biological target: Tyrosine-protein kinase Blk (Homo sapiens, UniProt P51451); type: functional;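 further: obtained as one member of a kinome-wide kinase assay panel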
[23] = biological target: Serine/threonine-protein kinase Nek2 (Homo sapiens, UniProt P51955); type: functional
[24] = biological target: Serine/threonine-protein kinase DCLK1 (Homo sapiens, UniProt O15075); type: functional;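 further: affinity for DCLK1 (listed as DCAMKL1) measured as one member of a kinome-wide kinase profiling panel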
[25] = biological target: BDNF/NT-3 growth factors receptor (Homo sapiens, UniProt Q16620); type: functional;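 further: NTRK2 measured as one member of a broad kinome-wide kinase profiling panel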
[26] = biological target: Tyrosine-protein kinase Fyn (Homo sapiens, UniProt P06241); type: functional
[27] = biological target: Proto-oncogene tyrosine-protein kinase Src (Homo sapiens, UniProt P12931); type: functional;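 further: SRC entry within a kinome-wide kinase profiling panel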
[28] = biological target: STE20-like serine/threonine-protein kinase (Homo sapiens, UniProt Q9H2G2); type: functional
STE20-like serine/threonine-protein kinase, sequence (Q9H2G2 whole entry): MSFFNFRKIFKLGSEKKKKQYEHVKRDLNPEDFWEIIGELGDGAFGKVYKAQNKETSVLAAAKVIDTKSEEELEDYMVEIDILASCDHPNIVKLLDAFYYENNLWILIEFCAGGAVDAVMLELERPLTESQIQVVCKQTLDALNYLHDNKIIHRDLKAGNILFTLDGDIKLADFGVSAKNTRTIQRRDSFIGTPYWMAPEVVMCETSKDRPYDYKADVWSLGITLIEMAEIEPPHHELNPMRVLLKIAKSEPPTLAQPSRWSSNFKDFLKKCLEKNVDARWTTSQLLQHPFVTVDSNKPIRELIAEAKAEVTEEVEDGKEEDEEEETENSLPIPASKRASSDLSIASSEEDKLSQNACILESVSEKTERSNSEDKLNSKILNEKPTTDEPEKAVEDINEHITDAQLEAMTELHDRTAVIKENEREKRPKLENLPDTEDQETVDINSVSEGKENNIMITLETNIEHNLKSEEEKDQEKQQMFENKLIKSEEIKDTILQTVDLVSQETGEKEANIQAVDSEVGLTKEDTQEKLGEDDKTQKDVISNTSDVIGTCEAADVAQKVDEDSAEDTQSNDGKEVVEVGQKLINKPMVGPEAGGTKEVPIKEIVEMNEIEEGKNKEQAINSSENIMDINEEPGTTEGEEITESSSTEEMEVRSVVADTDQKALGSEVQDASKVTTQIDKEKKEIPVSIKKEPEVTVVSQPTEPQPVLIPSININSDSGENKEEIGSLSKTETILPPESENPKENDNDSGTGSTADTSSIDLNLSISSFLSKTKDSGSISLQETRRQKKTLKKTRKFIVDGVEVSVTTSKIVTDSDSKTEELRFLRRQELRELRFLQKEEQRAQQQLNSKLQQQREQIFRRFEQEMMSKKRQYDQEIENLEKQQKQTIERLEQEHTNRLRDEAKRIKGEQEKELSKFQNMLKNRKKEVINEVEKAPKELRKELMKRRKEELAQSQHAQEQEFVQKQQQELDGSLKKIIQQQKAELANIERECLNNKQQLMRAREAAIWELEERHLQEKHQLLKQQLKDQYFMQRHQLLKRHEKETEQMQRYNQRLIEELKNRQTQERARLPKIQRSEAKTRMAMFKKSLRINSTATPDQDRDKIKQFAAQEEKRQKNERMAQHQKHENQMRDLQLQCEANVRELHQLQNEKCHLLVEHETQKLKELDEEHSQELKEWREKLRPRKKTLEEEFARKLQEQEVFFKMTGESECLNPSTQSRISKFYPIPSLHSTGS

Phosphorylase b kinase gamma catalytic chain, liver/testis isoform, sequence (P15735 whole entry, canonical isoform): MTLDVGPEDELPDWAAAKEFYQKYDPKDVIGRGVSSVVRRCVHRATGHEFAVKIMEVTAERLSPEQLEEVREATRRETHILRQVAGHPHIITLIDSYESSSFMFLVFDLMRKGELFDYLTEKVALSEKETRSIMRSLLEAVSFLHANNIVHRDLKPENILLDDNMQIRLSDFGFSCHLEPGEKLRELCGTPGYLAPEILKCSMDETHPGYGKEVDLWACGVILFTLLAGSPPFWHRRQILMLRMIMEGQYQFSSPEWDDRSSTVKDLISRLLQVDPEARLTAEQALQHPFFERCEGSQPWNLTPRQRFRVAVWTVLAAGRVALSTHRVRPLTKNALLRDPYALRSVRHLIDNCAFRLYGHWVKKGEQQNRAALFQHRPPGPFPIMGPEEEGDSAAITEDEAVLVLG
Genome polyprotein, sequence (P29990 2492-3391 limits assumed): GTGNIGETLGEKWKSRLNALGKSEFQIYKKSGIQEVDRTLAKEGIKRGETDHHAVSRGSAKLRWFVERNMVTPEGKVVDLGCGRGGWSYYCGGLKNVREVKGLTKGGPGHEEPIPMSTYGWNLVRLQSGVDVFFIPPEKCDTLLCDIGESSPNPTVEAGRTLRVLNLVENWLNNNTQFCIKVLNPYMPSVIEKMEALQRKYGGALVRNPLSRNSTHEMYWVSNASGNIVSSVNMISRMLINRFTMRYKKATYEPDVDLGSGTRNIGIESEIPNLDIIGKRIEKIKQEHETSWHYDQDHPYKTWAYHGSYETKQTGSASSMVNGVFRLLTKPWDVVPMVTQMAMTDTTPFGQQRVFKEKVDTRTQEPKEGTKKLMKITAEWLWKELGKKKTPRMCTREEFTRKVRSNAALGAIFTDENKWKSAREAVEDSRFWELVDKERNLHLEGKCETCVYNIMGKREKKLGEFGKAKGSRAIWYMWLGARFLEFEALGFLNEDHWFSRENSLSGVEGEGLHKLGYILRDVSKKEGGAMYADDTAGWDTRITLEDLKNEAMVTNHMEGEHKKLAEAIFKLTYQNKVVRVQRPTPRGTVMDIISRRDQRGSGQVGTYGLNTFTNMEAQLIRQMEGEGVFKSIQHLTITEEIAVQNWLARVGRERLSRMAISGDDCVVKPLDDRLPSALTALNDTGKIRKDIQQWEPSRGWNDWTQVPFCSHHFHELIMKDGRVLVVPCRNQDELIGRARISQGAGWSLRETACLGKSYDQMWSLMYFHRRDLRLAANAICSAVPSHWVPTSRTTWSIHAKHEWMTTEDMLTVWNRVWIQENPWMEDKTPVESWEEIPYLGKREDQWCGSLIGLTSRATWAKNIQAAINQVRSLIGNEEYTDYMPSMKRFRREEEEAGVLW
Aurora kinase B, sequence (Q96GD4 whole entry): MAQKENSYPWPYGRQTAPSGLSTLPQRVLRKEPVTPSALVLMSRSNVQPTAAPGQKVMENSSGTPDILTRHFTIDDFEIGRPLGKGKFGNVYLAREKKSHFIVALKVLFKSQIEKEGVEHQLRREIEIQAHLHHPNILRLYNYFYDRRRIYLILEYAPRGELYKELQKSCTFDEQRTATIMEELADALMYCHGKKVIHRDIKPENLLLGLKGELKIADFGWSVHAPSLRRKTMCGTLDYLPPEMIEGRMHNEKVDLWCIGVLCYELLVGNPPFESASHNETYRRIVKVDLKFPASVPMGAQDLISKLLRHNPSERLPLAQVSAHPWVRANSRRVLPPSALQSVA
Serine/threonine-protein kinase Nek2, sequence (P51955 whole entry): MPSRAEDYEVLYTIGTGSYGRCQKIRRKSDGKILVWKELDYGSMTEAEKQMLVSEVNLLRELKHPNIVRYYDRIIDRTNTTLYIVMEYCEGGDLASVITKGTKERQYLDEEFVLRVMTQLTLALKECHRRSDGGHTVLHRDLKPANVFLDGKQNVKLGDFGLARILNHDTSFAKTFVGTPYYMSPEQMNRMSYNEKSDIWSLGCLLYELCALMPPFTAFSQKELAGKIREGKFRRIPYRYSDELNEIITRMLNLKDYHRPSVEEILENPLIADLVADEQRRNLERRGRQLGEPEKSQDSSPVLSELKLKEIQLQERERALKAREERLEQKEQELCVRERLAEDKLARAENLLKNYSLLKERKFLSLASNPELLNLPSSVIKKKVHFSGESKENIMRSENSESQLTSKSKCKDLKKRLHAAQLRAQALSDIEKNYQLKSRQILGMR
Serine/threonine-protein kinase D2, sequence (Q9BZL6 whole entry): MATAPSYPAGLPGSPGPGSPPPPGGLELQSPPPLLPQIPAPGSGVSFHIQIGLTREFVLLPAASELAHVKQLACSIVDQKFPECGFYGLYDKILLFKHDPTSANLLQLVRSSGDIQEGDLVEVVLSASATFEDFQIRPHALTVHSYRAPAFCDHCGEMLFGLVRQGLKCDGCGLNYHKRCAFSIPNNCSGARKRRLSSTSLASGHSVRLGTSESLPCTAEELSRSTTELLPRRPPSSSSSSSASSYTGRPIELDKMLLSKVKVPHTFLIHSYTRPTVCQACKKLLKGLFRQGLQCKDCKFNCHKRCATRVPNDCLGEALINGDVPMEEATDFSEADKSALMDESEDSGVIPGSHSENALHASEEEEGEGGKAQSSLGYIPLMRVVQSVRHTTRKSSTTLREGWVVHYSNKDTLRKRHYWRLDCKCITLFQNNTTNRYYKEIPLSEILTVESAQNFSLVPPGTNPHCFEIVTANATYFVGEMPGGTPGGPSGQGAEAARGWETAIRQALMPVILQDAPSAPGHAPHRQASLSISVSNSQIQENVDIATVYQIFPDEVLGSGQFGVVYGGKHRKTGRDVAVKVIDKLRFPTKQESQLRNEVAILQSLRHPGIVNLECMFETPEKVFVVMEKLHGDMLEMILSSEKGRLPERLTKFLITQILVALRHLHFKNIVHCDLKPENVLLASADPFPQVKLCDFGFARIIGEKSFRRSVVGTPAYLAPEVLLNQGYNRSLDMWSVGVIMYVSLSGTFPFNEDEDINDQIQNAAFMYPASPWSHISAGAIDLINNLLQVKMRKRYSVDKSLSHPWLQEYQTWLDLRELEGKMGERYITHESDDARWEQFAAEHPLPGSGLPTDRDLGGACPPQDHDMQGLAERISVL
Serine/threonine-protein kinase DCLK1, sequence (O15075 whole entry): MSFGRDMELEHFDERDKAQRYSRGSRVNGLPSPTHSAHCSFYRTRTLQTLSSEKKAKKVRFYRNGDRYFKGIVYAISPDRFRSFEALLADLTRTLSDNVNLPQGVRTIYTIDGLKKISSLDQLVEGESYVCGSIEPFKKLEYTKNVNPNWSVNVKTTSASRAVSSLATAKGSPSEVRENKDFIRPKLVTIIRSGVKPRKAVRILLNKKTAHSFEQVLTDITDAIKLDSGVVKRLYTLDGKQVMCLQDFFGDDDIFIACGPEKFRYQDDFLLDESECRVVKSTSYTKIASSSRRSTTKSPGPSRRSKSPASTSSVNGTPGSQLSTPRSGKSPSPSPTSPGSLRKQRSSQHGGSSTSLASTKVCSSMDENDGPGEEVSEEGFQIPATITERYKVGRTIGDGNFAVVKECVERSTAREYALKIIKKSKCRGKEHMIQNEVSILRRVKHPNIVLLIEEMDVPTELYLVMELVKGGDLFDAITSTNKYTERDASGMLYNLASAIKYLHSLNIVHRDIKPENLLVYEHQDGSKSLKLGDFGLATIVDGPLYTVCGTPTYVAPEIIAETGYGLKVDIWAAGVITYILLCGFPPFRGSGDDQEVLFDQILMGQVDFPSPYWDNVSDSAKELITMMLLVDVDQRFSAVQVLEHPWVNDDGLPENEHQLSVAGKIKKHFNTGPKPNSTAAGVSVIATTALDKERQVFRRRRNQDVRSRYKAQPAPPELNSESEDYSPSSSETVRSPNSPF

SMILES: Cc1ccc(C(=O)NC2(O)C(=O)c3ccccc3C2=O)cc1C
- IC50 (Caspase-3 [1]): > 100 µM (inactive)

SMILES: O=[N+]([O-])c1c(Nc2ccccn2)cc(Cl)c2nonc12
- AC50 (Caspase-3 [2]): 7.84 µM (active)
- IC50 (Genome polyprotein): 20 µM (active)
- AC50 (INS1): 6.13 µM (active)

SMILES: CC[C@@H](C)[C@H](CNC)NC[C@@H](Cc1cccc2ccccc12)NCCc1cccc(C(F)(F)F)c1
- EC50 [3]: > 150 µM (inconclusive)
- AC50 [4]: 3.28 µM (active)
- IC50 (HEK293): 8.67 µM (active)

SMILES: Cc1ccc(S(=O)(=O)/N=C2\C=C(Nc3cccc(C(=O)O)c3)C(=O)c3ccccc32)cc1
- IC50 [5]: 42.4 µM (inactive)
- IC50 [6]: 0.524 µM (active)

- Ki [7]: > 6.31 µM (inactive)
- Ki [8]: > 2.51 µM (inactive)
- Ki [9]: > 2.51 µM (inactive)
- Ki [10]: 5.01 µM (active)
- Ki [11]: > 7.94 µM (inactive)
- Ki [12]: > 3.98 µM (inactive)
- Ki (Ephrin type-A receptor 2): > 3.16 µM (inactive)
- Ki [13]: > 7.94 µM (inactive)
- Ki [14]: 6.31 µM (active)
- Ki [15]: > 7.94 µM (inactive)
- Ki [16]: > 7.94 µM (inactive)
- Ki [17]: > 5.01 µM (inactive)
- Ki (Aurora kinase B): > 6.31 µM (inactive)
- Ki [18]: > 10 µM (inactive)
- Ki [19]: > 2 µM (inactive)
- Ki [20]: > 7.94 µM (inactive)
- Ki [21]: > 3.98 µM (inactive)
- Ki [22]: > 1.58 µM (inactive)
- Ki [23]: > 10 µM (inactive)
- Ki [24]: > 10 µM (inactive)
- Ki [25]: > 5.01 µM (inactive)
- Ki [26]: > 0.794 µM (inactive)
- Ki [27]: > 2 µM (inactive)
- Ki [28]: > 10 µM (inactive)
SMILES: CC(C)(CO)CNc1nccc(-c2c(-c3ccc(F)cc3)nc3c(CC4CC4)nccn23)n1
